The record followed here is ChEMBL document CHEMBL4251553, “Synthesis, anticancer evaluation and pharmacokinetic study of novel 10-O-phenyl ethers of dihydroartemisinin” (Eur J Med Chem, 2017).

For one data set, the system named is MCF7. The data set is described as follows: Antiproliferative activity against human MCF7 cells after 96 hrs by MTT assay. The data set is classed as functional. To be noted: MCF7, 96 h.
In a further data set the test system is MDA-MB-231. The experiment in a line: Antiproliferative activity against human MDA-MB-231 cells after 96 hrs by MTT assay. The data set is classed as functional. As to conditions: MDA-MB-231, 96 h.
Data set [1] can be described thus: Selectivity ratio of GI50 for human MCF7 cells to GI50 for human MCF7/ADR cells. Type of data set: functional.
The next data set deals with NCI/ADR-RES. The experiment in a line: Antiproliferative activity against human MCF7/ADR cells after 96 hrs by MTT assay. Type of data set: functional.
The next data set deals with LNCaP. The experiment in a line: Antiproliferative activity against human LNCAP cells after 96 hrs by MTT assay. Type of data set: functional.
Another data set has as its system U-937. The experiment in a line: Antiproliferative activity against human U937 cells after 96 hrs by MTT assay. Type of data set: functional. As to conditions: U-937, 96 h.
The test system of a further data set is NB-4. The experiment in a line: Antiproliferative activity against human NB4 cells after 96 hrs by MTT assay. Type of data set: functional. As to conditions: NB-4, 96 h.
A further data set concerns PC-3. The data set is described as follows: Antiproliferative activity against human PC3 cells after 96 hrs by MTT assay. Type of data set: functional. To be noted: PC-3, 96 h.
For a further data set, the system named is K562. The data set is described as follows: Antiproliferative activity against human K562 cells after 96 hrs by MTT assay. The data set is classed as functional. As to conditions: K562, 96 h.
A further data set concerns HL-60. The experiment in a line: Antiproliferative activity against human HL60 cells after 96 hrs by MTT assay. As to conditions: HL-60, 96 h. Type of data set: functional.
A short description of data set [2]: AUC (0 to t) in Sprague-Dawley rat at 10 mg/kg, iv administered as single dose by LC-MS/MS analysis. The data set is classed as ADME, organism-based. As to conditions: in vivo.
The nature of data set [3]: MRT (0 to infinity) in Sprague-Dawley rat at 10 mg/kg, iv administered as single dose by LC-MS/MS analysis. Type of data set: ADME, organism-based. To be noted: in vivo.
Data set [4] can be described thus: Plasma concentration in Sprague-Dawley rat at 10 mg/kg, iv administered as single dose measured at 0.5 hrs post dosing by LC-MS/MS analysis. The data set is classed as ADME, organism-based.
Data set [5] in a line: Plasma concentration in Sprague-Dawley rat at 10 mg/kg, iv administered as single dose measured at 8 hrs post dosing by LC-MS/MS analysis. The data set is classed as ADME, organism-based.
A short description of data set [6]: Apparent clearance in Sprague-Dawley rat at 10 mg/kg, iv administered as single dose by LC-MS/MS analysis. The data set is classed as ADME, organism-based. To be noted: in vivo, read-out: CL(app) (converted).
The nature of data set [7]: Plasma concentration in Sprague-Dawley rat at 10 mg/kg, iv administered as single dose measured at 2 hrs post dosing by LC-MS/MS analysis. The data set is classed as ADME, organism-based.
A short description of data set [8]: AUC (0 to infinity) in Sprague-Dawley rat at 10 mg/kg, iv administered as single dose by LC-MS/MS analysis. Type of data set: ADME, organism-based. On the set-up: dose 10 mg/kg, route intravenous, time infinity. As to conditions: in vivo.
Data set [9] in a line: Plasma concentration in Sprague-Dawley rat at 10 mg/kg, iv administered as single dose measured at 0.25 hrs post dosing by LC-MS/MS analysis. Type of data set: ADME, organism-based.
A short description of data set [10]: Plasma concentration in Sprague-Dawley rat at 10 mg/kg, iv administered as single dose measured at 4 hrs post dosing by LC-MS/MS analysis. The data set is classed as ADME, organism-based.
The nature of data set [11]: Plasma concentration in Sprague-Dawley rat at 10 mg/kg, iv administered as single dose measured at 0.083 hrs post dosing by LC-MS/MS analysis. The data set is classed as ADME, organism-based.
Data set [12] is described as follows: Plasma concentration in Sprague-Dawley rat at 10 mg/kg, iv administered as single dose measured at 1 hr post dosing by LC-MS/MS analysis. The data set is classed as ADME, organism-based.
The nature of data set [13]: Apparent volume of distribution in Sprague-Dawley rat at 10 mg/kg, iv administered as single dose by LC-MS/MS analysis. Type of data set: ADME, organism-based. As to conditions: in vivo, read-out: Vz.
Data set [14] is described as follows: Cmax in Sprague-Dawley rat at 10 mg/kg, iv administered as single dose by LC-MS/MS analysis. To be noted: in vivo. Type of data set: ADME, organism-based. On the set-up: dose 10 mg/kg, route intravenous.
A short description of data set [15]: Plasma concentration in Sprague-Dawley rat at 10 mg/kg, iv administered as single dose measured at 24 hrs post dosing by LC-MS/MS analysis. Type of data set: ADME, organism-based.
Data set [16] in a line: Apparent terminal half life in Sprague-Dawley rat at 10 mg/kg, iv administered as single dose by LC-MS/MS analysis. The data set is classed as ADME, organism-based. As to conditions: in vivo, read-out: betat1/2(app) (converted).

For the compound `CC(=O)N1N=C(c2ccc(O[C@H]3O[C@@H]4O[C@@]5(C)CC[C@H]6[C@H](C)CC[C@@H]([C@H]3C)[C@@]46OO5)cc2)CC1c1ccc(Br)cc1` (some centres undefined), the concentration for 50% growth inhibition (GI50) with MCF7 came to 300 nM; with MDA-MB-231, 370 nM; with NCI/ADR-RES it was 26 nM. Besides, in data set [1], the RatioGI50 is 11.5.

`C[C@H]1[C@@H](O)O[C@@H]2O[C@@]3(C)CC[C@H]4[C@H](C)CC[C@@H]1[C@@]24OO3` [ARTENIMOL]: the 50% growth inhibitory concentration (GI50) in the data set on LNCaP was greater than 10000 nM; with U-937, 910 nM; in the data set with NB-4 it was 151 nM; in the data set with PC-3, greater than 10000 nM; in the data set on K562, greater than 10000 nM; in the data set on HL-60 it was 191 nM. The GI50 in the data set with MDA-MB-231 came to 12600 nM. Further, the RatioGI50 in [1] is recorded as 10.

As to `C[C@H]1[C@@H](Oc2ccc(-c3cc(-c4ccc(Br)cc4)[nH]n3)cc2)O[C@@H]2O[C@@]3(C)CC[C@H]4[C@H](C)CC[C@@H]1[C@@]24OO3`, the concentration for 50% growth inhibition (GI50) was 340 nM in the data set on MCF7, 410 nM in the data set with MDA-MB-231 and 33 nM with NCI/ADR-RES. For the same compound, in [1], the RatioGI50 is reported as 10.3.

As to `COc1ccc(C2CC(c3ccc(O[C@@H]4O[C@@H]5O[C@@]6(C)CC[C@H]7[C@H](C)CC[C@@H]([C@H]4C)[C@@]57OO6)cc3)=NN2C(C)=O)cc1` (some centres undefined), the GI50 was 300 nM in the data set on MCF7, 990 nM in the data set with MDA-MB-231 and 51 nM with NCI/ADR-RES. In addition, the RatioGI50 in [1] was found to be 5.9.

For the compound `COc1ccc(-c2cc(-c3ccc(O[C@@H]4O[C@@H]5O[C@@]6(C)CC[C@H]7[C@H](C)CC[C@@H]([C@H]4C)[C@@]57OO6)cc3)n[nH]2)c(OC)c1`, the GI50 with MCF7 came to 500 nM; in the data set with MDA-MB-231, 760 nM; in the data set on NCI/ADR-RES, 41 nM. The RatioGI50 in data set [1] amounted to 12.2.

As to `CC(=O)N1N=C(c2ccc(O[C@@H]3O[C@@H]4O[C@@]5(C)CC[C@H]6[C@H](C)CC[C@@H]([C@H]3C)[C@@]46OO5)cc2)CC1c1ccccc1` (some centres undefined), the figures for the GI50 in the data set with MCF7, in the data set on MDA-MB-231 and in the data set with NCI/ADR-RES were 570 nM, 1230 nM and 50 nM, respectively. The RatioGI50 in [1] came out at 14.2.

As for `CC(=O)N1N=C(c2ccc(O[C@H]3O[C@@H]4O[C@@]5(C)CC[C@H]6[C@H](C)CC[C@@H]([C@H]3C)[C@@]46OO5)cc2)CC1c1ccccc1` (some centres undefined), the area under the curve AUC(0-t) in data set [2] came out at 4140 ng·h/mL. In [3], this compound showed an MRT inf of 3.07 h. The compound further showed a concentration at 0.5 h in [4] of 1260 ng/mL. Besides, in [5], the concentration at 8 h turned out to be 63.9 ng/mL. The clearance in data set [6] is 41.3 mL/min/kg. Also, the concentration at 2 h in [7] was determined as 523 ng/mL. Also, the GI50 in the data set on LNCaP was 93 nM; in the data set with U-937 it was 40 nM; with NB-4 it was 29 nM; with MCF7 it was 130 nM; in the data set on PC-3 it was 110 nM; in the data set with K562, 73 nM. The GI50 with HL-60 worked out at 25 nM; with MDA-MB-231 it was 420 nM; in the data set on NCI/ADR-RES it was 61 nM. This compound also yielded an area under the curve AUC(0-inf) in [8] of 4170 ng·h/mL. Besides, in [9], the concentration at 0.25 h amounted to 1900 ng/mL. The compound further showed a concentration at 4 h in data set [10] of 224 ng/mL. Besides, the concentration at 0.083 h in data set [11] was 2430 ng/mL. This compound also came in with a concentration at 1 h in data set [12] of 935 ng/mL. The Vd in data set [13] stood at 13.7 L/kg. For the same compound, in [1], the RatioGI50 amounted to 2.1. Also, the peak level in data set [14] (Cmax) was 2430 ng/mL. The compound also gave a concentration at 24 h in data set [15] of 6.73 ng/mL. Further, in data set [16], the half-life is 3.87 h.

On to `COc1ccc(C2CC(c3ccc(O[C@H]4O[C@@H]5O[C@@]6(C)CC[C@H]7[C@H](C)CC[C@@H]([C@H]4C)[C@@]57OO6)cc3)=NN2C(C)=O)cc1` (some centres undefined), for which the GI50 is 320 nM in the data set with MCF7, 500 nM with MDA-MB-231 and 28 nM in the data set with NCI/ADR-RES. For the same compound, the RatioGI50 in data set [1] came to 11.4.

As to `CC(=O)N1N=C(c2ccc(O[C@@H]3O[C@@H]4O[C@@]5(C)CC[C@H]6[C@H](C)CC[C@@H]([C@H]3C)[C@@]46OO5)cc2)CC1c1ccc(Cl)cc1` (some centres undefined), the concentration for 50% growth inhibition (GI50) in the data set with MCF7 is 500 nM; in the data set on MDA-MB-231, 400 nM; with NCI/ADR-RES, 35 nM. In addition, the RatioGI50 in [1] came out at 14.3.

Regarding `C[C@H]1[C@H](Oc2ccc(-c3cc(-c4ccccc4)[nH]n3)cc2)O[C@@H]2O[C@@]3(C)CC[C@H]4[C@H](C)CC[C@@H]1[C@@]24OO3`, the concentration for 50% growth inhibition (GI50) amounted to 260 nM with MCF7, 960 nM with MDA-MB-231 and 19 nM in the data set with NCI/ADR-RES. The RatioGI50 in [1] worked out at 13.7.

For `CC(=O)N1N=C(c2ccc(O[C@H]3O[C@@H]4O[C@@]5(C)CC[C@H]6[C@H](C)CC[C@@H]([C@H]3C)[C@@]46OO5)cc2)CC1c1ccc(Cl)cc1` (some centres undefined), the 50% growth inhibitory concentration (GI50) with MCF7 was found to be 220 nM; with MDA-MB-231, 160 nM; with NCI/ADR-RES, 30 nM. Further, in data set [1], the RatioGI50 is recorded as 7.3.
